In ChEMBL document CHEMBL1140726, “Discovery and biological evaluation of 5-aryl-2-furfuramides, potent and selective blockers of the Nav1.8 sodium channel with efficacy in models of neuropathic and inflammatory pain” (J Med Chem, 2008):

What was measured:
[1] = target: T1, Sodium channel protein type 10 subunit alpha (Homo sapiens, UniProt Q9Y5Y9); assay: Activity at human recombinant Nav 1.8 channel expressed in HEK293 cells in resting state with prepulse voltage of -100 mV assessed as blockade of TTx-resistant sodium current at 0.1 uM; format: cell-based
[2] = target: T1, Sodium channel protein type 10 subunit alpha; assay: Activity at human recombinant Nav 1.8 channel expressed in HEK293 cells in inactivated state with prepulse voltage of -40 mV assessed as blockade of TTx-resistant sodium current at 0.03 uM; format: cell-based
[3] = Aqueous solubility of the compound; format: physicochemical
[4] = Activity at rat dorsal root ganglion in resting state with prepulse voltage of -100 mV assessed as blockade of TTx-resistant sodium current at 0.3 uM by whole-cell patch clamp technique; format: functional
[5] = target: Sodium channel protein type 10 subunit alpha (Mus musculus, UniProt Q6QIY3); assay: Inhibition of mouse recombinant Nav 1.8 channel expressed in HEK293 cells by isotopic efflux assay; format: cell-based
[6] = target: Sodium channel protein type 2 subunit alpha (Homo sapiens) (UniProt Q99250); assay: Inhibition of human Nav1.2 channel at 1 uM
[7] = target: T1, Sodium channel protein type 10 subunit alpha; assay: Inhibition of human recombinant Nav 1.8 channel expressed in HEK293 cells at 0.03 uM; format: cell-based
[8] = target: Sodium channel protein type 3 subunit alpha (Homo sapiens) (UniProt Q9NY46); assay: Inhibition of human Nav1.3 channel at 1 uM
[9] = target: T1, Sodium channel protein type 10 subunit alpha; assay: Inhibition of human recombinant Nav 1.8 channel expressed in HEK293 cells at 0.1 uM; format: cell-based
[10] = Activity at rat dorsal root ganglion in inactivated state with prepulse voltage of -40 mV assessed as blockade of TTx-resistant sodium current at 0.3 uM by whole-cell patch clamp technique; format: functional
[11] = Activity at rat dorsal root ganglion in inactivated state with prepulse voltage of -40 mV assessed as blockade of TTx-resistant sodium current at 0.1 uM by whole-cell patch clamp technique; format: functional
[12] = target: T2, Nav1.5 (sodium channel protein type 5 subunit alpha) (Homo sapiens, UniProt Q14524); assay: Inhibition of human Nav1.5 channel at 3 uM
[13] = target: T1, Sodium channel protein type 10 subunit alpha; assay: Activity at human recombinant Nav 1.8 channel expressed in HEK293 cells in resting state with prepulse voltage of -100 mV assessed as blockade of TTx-resistant sodium current at 0.03 uM; format: cell-based
[14] = target: Sodium channel protein type 9 subunit alpha (Homo sapiens) (UniProt Q15858); assay: Inhibition of human Nav1.7 channel at 3 uM
[15] = target: Voltage-gated inwardly rectifying potassium channel KCNH2 (Homo sapiens, UniProt Q12809); assay: Inhibition of hERG potassium channel expressed in CHO cells by isotope efflux assay
[16] = target: Sodium channel protein type 2 subunit alpha (Homo sapiens) (UniProt Q99250); assay: Inhibition of human Nav1.2 channel at 3 uM
[17] = Activity at rat dorsal root ganglion in resting state with prepulse voltage of -100 mV assessed as blockade of TTx-resistant sodium current at 0.1 uM by whole-cell patch clamp technique; format: functional
[18] = target: T1, Sodium channel protein type 10 subunit alpha; assay: Activity at human recombinant Nav 1.8 channel expressed in HEK293 cells in inactivated state with prepulse voltage of -40 mV assessed as blockade of TTx-resistant sodium current at 0.1 uM; format: cell-based
[19] = target: Sodium channel protein type 3 subunit alpha (Homo sapiens) (UniProt Q9NY46); assay: Inhibition of human Nav1.3 channel at 3 uM
[20] = target: T1, Sodium channel protein type 10 subunit alpha; assay: Activity at human recombinant Nav 1.8 channel expressed in HEK293 cells in inactivated state with prepulse voltage of -40 mV assessed as blockade of TTx-resistant sodium current at 0.3 uM; format: cell-based
[21] = target: T1, Sodium channel protein type 10 subunit alpha; assay: Inhibition of human recombinant Nav 1.8 channel expressed in HEK293 cells at 0.3 uM; format: cell-based
[22] = Activity at rat dorsal root ganglion in resting state with prepulse voltage of -100 mV assessed as blockade of TTx-resistant sodium current at 0.003 uM by whole-cell patch clamp technique; format: functional
[23] = target: T1, Sodium channel protein type 10 subunit alpha; assay: Activity at human recombinant Nav 1.8 channel expressed in HEK293 cells in resting state with prepulse voltage of -100 mV assessed as blockade of TTx-resistant sodium current at 0.3 uM; format: cell-based
[24] = Activity at rat dorsal root ganglion in inactivated state with prepulse voltage of -40 mV assessed as blockade of TTx-resistant sodium current at 0.003 uM by whole-cell patch clamp technique; format: functional
[25] = Activity at rat dorsal root ganglion in inactivated state with prepulse voltage of -40 mV assessed as blockade of TTx-resistant sodium current at 0.03 uM by whole-cell patch clamp technique; format: functional
[26] = target: Sodium channel protein type 9 subunit alpha (Homo sapiens) (UniProt Q15858); assay: Inhibition of human Nav1.7 channel at 0.3 uM
[27] = target: T1, Sodium channel protein type 10 subunit alpha; assay: Inhibition of human recombinant Nav 1.8 channel expressed in HEK293 cells at 0.001 uM; format: cell-based
[28] = target: Sodium channel protein type 2 subunit alpha (Homo sapiens) (UniProt Q99250); assay: Inhibition of human Nav1.2 channel at 0.3 uM
[29] = target: T2, Nav1.5 (sodium channel protein type 5 subunit alpha); assay: Inhibition of human Nav1.5 channel at 0.03 uM
[30] = target: T1, Sodium channel protein type 10 subunit alpha; assay: Activity at human recombinant Nav 1.8 channel expressed in HEK293 cells in resting state with prepulse voltage of -100 mV assessed as blockade of TTx-resistant sodium current at 0.001 uM; format: cell-based
[31] = target: T1, Sodium channel protein type 10 subunit alpha; assay: Activity at human recombinant Nav 1.8 channel expressed in HEK293 cells in inactivated state with prepulse voltage of -40 mV assessed as blockade of TTx-resistant sodium current at 0.001 uM; format: cell-based
[32] = target: Sodium channel protein type 3 subunit alpha (Homo sapiens) (UniProt Q9NY46); assay: Inhibition of human Nav1.3 channel at 0.3 uM
[33] = target: T2, Nav1.5 (sodium channel protein type 5 subunit alpha); assay: Inhibition of human Nav1.5 channel at 0.3 uM
[34] = Activity at rat dorsal root ganglion in resting state with prepulse voltage of -100 mV assessed as blockade of TTx-resistant sodium current at 0.03 uM by whole-cell patch clamp technique; format: functional
[35] = target: Sodium channel protein type 2 subunit alpha (Homo sapiens) (UniProt Q99250); assay: Inhibition of human Nav1.2 channel at 0.03 uM

Sodium channel protein type 10 subunit alpha (Mus musculus, UniProt Q6QIY3), sequence (Q6QIY3 whole entry): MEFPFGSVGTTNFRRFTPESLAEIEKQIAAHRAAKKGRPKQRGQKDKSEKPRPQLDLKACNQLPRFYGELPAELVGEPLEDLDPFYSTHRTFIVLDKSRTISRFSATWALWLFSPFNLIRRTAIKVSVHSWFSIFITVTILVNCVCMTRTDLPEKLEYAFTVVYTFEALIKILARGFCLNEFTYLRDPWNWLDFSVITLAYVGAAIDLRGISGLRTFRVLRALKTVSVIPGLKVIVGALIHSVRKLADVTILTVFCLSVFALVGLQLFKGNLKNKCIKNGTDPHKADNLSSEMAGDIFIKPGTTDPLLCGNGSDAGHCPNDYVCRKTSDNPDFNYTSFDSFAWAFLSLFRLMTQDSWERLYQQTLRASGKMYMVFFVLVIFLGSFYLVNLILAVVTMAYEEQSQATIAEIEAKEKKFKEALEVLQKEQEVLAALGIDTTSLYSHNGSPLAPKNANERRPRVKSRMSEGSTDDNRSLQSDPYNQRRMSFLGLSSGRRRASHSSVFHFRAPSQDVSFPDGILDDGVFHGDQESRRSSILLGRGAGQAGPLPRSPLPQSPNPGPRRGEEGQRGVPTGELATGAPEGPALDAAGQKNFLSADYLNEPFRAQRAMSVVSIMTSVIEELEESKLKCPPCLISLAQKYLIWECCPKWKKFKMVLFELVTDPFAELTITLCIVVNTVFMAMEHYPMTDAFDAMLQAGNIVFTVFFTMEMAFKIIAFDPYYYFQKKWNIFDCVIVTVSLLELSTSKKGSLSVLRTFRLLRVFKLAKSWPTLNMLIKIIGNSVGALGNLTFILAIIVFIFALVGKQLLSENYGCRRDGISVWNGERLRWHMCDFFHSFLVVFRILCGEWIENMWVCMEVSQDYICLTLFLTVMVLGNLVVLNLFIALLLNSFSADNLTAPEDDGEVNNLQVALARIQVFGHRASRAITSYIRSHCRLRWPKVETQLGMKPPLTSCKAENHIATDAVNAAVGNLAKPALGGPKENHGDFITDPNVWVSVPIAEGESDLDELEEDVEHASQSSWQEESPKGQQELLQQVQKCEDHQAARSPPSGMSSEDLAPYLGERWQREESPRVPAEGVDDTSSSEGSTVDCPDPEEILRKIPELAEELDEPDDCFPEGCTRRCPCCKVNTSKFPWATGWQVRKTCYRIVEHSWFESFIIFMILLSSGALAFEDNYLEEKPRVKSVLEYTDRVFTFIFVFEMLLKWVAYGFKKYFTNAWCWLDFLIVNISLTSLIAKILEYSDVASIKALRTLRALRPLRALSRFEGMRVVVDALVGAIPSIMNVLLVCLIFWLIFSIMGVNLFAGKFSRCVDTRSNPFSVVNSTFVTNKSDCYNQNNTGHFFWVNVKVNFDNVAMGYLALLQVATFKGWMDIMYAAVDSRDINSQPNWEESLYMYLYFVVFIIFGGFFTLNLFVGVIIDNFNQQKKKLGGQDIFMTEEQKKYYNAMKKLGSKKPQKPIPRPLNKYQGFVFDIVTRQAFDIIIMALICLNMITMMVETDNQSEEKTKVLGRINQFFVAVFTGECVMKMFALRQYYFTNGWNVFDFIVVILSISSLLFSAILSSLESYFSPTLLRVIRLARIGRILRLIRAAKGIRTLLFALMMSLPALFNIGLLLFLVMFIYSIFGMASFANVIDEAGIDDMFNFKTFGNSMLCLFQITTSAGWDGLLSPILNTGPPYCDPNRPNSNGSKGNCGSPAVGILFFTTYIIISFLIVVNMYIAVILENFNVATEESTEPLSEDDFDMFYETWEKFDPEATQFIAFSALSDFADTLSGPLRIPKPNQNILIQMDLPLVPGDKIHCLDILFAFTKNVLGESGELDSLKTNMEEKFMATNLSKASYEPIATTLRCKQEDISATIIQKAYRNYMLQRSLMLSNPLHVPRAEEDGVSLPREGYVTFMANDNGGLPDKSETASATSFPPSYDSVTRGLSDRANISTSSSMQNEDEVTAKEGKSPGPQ
Sodium channel protein type 3 subunit alpha (Homo sapiens), sequence (Q9NY46 whole entry, looked up): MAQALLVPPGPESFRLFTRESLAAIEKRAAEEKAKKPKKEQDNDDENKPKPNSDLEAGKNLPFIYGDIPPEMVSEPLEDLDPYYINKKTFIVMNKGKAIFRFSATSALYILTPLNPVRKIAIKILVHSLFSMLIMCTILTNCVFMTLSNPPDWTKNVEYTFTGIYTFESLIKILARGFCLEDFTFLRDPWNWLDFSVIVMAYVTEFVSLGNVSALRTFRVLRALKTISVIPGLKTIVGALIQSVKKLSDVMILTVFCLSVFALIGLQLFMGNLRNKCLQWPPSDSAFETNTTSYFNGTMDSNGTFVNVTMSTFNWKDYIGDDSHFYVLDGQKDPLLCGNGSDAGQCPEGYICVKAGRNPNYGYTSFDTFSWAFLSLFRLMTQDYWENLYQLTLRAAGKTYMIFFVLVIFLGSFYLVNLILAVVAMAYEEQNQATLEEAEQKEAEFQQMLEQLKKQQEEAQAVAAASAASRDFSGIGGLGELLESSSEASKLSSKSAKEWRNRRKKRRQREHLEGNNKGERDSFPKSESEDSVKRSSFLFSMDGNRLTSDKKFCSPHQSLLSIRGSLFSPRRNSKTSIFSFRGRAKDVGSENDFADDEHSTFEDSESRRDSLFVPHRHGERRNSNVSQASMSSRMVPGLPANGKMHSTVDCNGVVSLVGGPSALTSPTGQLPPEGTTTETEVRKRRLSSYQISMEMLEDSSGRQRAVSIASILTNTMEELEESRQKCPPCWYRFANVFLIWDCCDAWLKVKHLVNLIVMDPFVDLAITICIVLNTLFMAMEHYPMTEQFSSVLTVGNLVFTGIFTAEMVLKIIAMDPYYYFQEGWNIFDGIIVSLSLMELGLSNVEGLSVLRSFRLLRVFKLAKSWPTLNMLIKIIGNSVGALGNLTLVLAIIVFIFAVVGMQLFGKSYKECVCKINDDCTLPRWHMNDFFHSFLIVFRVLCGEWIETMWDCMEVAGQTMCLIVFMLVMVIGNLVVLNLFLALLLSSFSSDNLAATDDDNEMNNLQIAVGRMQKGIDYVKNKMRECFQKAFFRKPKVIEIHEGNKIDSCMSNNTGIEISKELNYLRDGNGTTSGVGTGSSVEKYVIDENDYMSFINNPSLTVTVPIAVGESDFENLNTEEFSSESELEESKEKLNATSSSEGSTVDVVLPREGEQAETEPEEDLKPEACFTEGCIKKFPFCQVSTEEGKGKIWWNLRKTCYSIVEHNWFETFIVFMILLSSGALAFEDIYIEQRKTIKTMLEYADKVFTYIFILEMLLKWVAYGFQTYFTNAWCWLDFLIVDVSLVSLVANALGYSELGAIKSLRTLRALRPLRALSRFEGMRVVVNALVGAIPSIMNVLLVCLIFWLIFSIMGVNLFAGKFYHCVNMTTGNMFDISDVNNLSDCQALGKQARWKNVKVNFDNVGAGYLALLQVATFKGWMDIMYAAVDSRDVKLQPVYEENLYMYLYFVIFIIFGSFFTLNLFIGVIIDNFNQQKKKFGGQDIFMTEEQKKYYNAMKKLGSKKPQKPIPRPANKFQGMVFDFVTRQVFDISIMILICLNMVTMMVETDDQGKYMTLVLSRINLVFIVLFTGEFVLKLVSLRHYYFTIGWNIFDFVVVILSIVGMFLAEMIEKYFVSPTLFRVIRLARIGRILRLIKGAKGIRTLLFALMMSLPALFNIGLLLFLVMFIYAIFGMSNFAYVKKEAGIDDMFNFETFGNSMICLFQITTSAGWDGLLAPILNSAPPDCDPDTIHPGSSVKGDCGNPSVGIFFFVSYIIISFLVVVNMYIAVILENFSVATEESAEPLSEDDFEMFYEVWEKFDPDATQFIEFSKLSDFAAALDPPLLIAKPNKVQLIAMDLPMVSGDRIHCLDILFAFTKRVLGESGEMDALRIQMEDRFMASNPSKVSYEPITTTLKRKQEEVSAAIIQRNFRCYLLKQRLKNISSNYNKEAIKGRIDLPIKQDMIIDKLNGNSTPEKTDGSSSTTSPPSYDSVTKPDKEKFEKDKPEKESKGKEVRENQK
Voltage-gated inwardly rectifying potassium channel KCNH2, sequence (Q12809 whole entry): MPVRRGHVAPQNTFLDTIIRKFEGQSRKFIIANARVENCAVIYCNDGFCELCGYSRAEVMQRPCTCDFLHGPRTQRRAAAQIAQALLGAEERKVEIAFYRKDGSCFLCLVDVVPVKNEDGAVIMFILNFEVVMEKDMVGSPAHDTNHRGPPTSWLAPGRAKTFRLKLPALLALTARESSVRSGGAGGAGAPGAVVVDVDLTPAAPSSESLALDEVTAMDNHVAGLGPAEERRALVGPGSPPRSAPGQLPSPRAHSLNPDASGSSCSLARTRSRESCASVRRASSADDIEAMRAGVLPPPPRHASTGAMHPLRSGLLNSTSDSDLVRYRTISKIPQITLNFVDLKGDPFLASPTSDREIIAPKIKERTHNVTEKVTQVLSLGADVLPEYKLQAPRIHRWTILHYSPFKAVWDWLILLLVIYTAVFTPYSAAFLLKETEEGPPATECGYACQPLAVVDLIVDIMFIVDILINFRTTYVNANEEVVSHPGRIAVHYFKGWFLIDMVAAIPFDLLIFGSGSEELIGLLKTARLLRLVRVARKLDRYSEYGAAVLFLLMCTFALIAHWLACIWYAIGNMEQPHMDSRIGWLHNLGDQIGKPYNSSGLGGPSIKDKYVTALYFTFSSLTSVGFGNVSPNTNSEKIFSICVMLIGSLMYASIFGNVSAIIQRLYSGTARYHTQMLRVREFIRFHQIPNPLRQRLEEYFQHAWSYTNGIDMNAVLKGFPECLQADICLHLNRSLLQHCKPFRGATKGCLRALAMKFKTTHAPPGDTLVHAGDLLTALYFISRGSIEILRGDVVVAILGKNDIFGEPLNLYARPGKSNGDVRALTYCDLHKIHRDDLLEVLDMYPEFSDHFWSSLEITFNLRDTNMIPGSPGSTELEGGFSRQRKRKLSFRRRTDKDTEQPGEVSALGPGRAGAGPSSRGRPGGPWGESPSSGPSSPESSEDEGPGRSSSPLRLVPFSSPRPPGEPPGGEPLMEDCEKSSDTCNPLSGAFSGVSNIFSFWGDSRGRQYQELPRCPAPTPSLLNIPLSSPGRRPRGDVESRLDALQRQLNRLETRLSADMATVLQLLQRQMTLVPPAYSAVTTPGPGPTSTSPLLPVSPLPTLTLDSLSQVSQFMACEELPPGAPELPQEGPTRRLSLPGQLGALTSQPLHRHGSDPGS

SMILES: Cc1cccc(NC(=O)c2ccc(-c3ccc(Cl)cc3)o2)c1
- inhibition [1]: 67%
- inhibition [2]: 68%
- solubility [3]: < 0.1 µg/mL
- inhibition at 0.3 µM [4]: 18%
- IC50 [5]: 0.48 µM
- inhibition [6]: 33%
- inhibition [7]: 68%
- inhibition [8]: 17%
- inhibition [9]: 77%
- inhibition at 0.3 µM [10]: 60%
- inhibition at 0.1 µM [11]: 37%
- inhibition at 3 µM [12]: 51%
- inhibition [13]: 61%
- inhibition [14]: 41%
- IC50 [15]: 27 µM
- inhibition [16]: 54%
- inhibition at 0.1 µM [17]: 3%
- inhibition [18]: 77%
- inhibition [19]: 61%

SMILES: Cc1cccc(NC(=O)c2ccc(-c3cccc(C#N)c3)o2)c1
- IC50 [5]: 30 µM

SMILES: N#CCc1cccc(NC(=O)c2ccc(-c3ccc(Cl)cc3)o2)c1
- IC50 [5]: 1.7 µM

SMILES: Cc1ccccc1CNC(=O)c1ccc(-c2ccc(Cl)cc2)o1
- IC50 [5]: 1.1 µM

SMILES: O=C(Nc1cccc(C2=NCCO2)c1)c1ccc(-c2ccc(Cl)cc2)o1
- IC50 [5]: 2.5 µM

SMILES: CN(C)C1CCN(C(=O)c2ccc(-c3ccc(Cl)cc3)o2)CC1
- IC50 [5]: 5.2 µM

SMILES: CN1CCOc2cc(NC(=O)c3ccc(-c4ccc(Cl)cc4)o3)ccc21
- IC50 [5]: 0.97 µM

SMILES: O=C(Nc1cccc(N2CCOCC2)c1)c1ccc(-c2ccc(Cl)cc2)o1
- IC50 [5]: 4.6 µM

SMILES: Cc1cccc(NC(=O)c2ccc(-c3ccc(S(C)(=O)=O)cc3)o2)c1
- IC50 [5]: > 30 µM

SMILES: Cc1cccc(NC(=O)c2ccc(-c3cccc(C(F)(F)F)c3)o2)c1
- IC50 [5]: 7.5 µM

SMILES: CN1CCCc2cc(NC(=O)c3ccc(-c4ccc(Cl)cc4)o3)ccc21
- inhibition [20]: 70%
- inhibition [2]: 56%
- inhibition at 0.3 µM [4]: 28%
- IC50 [5]: 2.9 µM
- inhibition [21]: 70%
- inhibition [7]: 55%
- inhibition at 0.003 µM [22]: 31%
- inhibition at 3 µM [12]: 71%
- inhibition [23]: 66%
- inhibition [13]: 27%
- inhibition [14]: 44%
- IC50 [15]: 5.3 µM
- inhibition [16]: 38%
- inhibition at 0.003 µM [24]: 44%
- inhibition at 0.03 µM [25]: 79%
- inhibition [19]: 37%

SMILES: Cc1cccc(N/C(=N/C#N)c2ccc(-c3ccc(Cl)cc3)o2)c1
- inhibition [26]: 70%
- inhibition [2]: 99%
- inhibition [27]: 76%
- IC50 [5]: 0.03 µM
- inhibition [7]: 99%
- inhibition [28]: 94%
- inhibition at 0.03 µM [29]: 32%
- inhibition [30]: 46%
- inhibition [31]: 76%
- inhibition at 0.003 µM [22]: 22%
- inhibition [13]: 94%
- inhibition [32]: 24%
- inhibition at 0.3 µM [33]: 69%
- IC50 [15]: > 30 µM
- inhibition at 0.03 µM [34]: 45%
- inhibition [35]: 91%
- inhibition at 0.003 µM [24]: 51%
- inhibition at 0.03 µM [25]: 71%
